Source: article PMC2848619, “The Combinatorial PP1-Binding Consensus Motif (R/K)x (0,1)V/IxFxx(R/K)x(R/K) Is a New Apoptotic Signature” (PLoS ONE, 2010)
Where a SMILES comes first, the peptide text is derived from it. Where no end group is shown, it is not given here. The star is where a group is joined. Biotin = O=C1N[C@H]2[C@H](CS[C@H]2CCCCC(=O)*)N1

Key:
[1] = test system: HeLa cells; assay: Quantification of peptide internalization: intracellular delivery of streptavidin-peroxidase (OPD); format: cell-based, human; details: 6 hrs at 37°C, compared with TAT peptide
Experimental: Before incubation, the peptides were preincubated for 1 h with streptavidin HRP conjugate in a 4/1 ratio. Cells at 80% confluence were incubated with different concentrations of peptide in 24-well plates. After 6 h, cells were washed twice in PBS, trypsinized (Trypsin EDTA, Invitrogen) and harvested in 1 ml of PBS and counted. Cells were lysed in 300 µl of 0.1 M Tris pH 7.4, and 0.5% Nonidet P-40 buffer for 10 min on ice. A total of 50 µl of cell lysate was mixed with 50 µl of OPD buffer (51.4 mM Na2HPO4 and 24.3 mM citric acid) then mixed with 100 µl of OPD solution (one OPD tablet from Sigma (St. Louis MO) in 100 ml of OPD buffer to which 40 µl of 30% hydrogen peroxide was added just before use). After 10 to 20 min, the reaction was stopped by adding 100 µl of 1 M HCl, and optical density was read at 490 nm.

[2] = Apoptotic effect of DPT-APAF peptides (abstract only); format: cell-based; details: stated in abstract only
[3] = test system: PP1c; assay: PP1c binding of DPT-APAF peptides (abstract only); details: stated in abstract only
[4] = test system: PP1c; assay: Pull down assay of biotinylated peptides with PP1c from HeLa cell extracts; format: binding, human; details: peptide 100 µM on streptavidin magnetic beads, HeLa cell lysate, 2 h 4°C, western blot with PP1 antibodies
Experimental: Biotinylated peptides were pre-incubated for 2 h at 100 µM (final concentration with lysate) and room temperature with 30 µl of streptavidin-coated immunomagnetic beads (Calbiochem, San Diego CA). During this time, 1×10^6 HeLa cells at 90% of confluence per test peptide were washed with PBS, trypsinized, harvested with PBS, washed with 1 ml of PBS, and centrifuged at 600 g and 4°C for 10 min. Cell pellets were lysed 10 min on ice with 400 µl of lysis buffer (50 mM Tris pH 7.4, 200 mM NaCl, 10 mM EDTA, 20% Glycerol, 1% Nonidet P-40, 1 mM phenylmethylsulfonyl fluoride (PMSF), 10 mM NaF, 1 mM orthovanadate, and “complete mini EDTA free” protease inhibitor cocktail from Roche). Lysates were clarified at 13,000 g for 10 min at 4°C and after rotation with supernatant at 4°C for 2 h, biotinylated peptides were pulled down with streptavidine magnetic beads and washed twice with 750 µl of lysis buffer. Bound proteins and clarified lysates were analyzed by western blotting using PP1 antibodies.

CC[C@H](C)[C@H](NC(=O)[C@@H](NC(=O)CNC(=O)[C@H](CCCCN)NC(=O)CCCC[C@@H]1SC[C@@H]2NC(=O)N[C@@H]21)C(C)C)C(=O)N[C@@H](Cc1ccccc1)C(=O)N[C@@H](Cc1ccc(O)cc1)C(=O)N[C@@H](CC(C)C)C(=O)N[C@@H](CCCNC(=N)N)C(=O)N[C@@H](CC(=O)O)C(=O)N[C@@H](CCCCN)C(=O)O [DPT-AIF1] (Biotin-KGVIFYLRDK-OH)
Ability to internalize Streptavidin-HRP conjugated molecules (in words) [1]: able to internalize Streptavidin-HRP conjugated molecules even more efficiently than the well characterized positive control TAT peptide

DPT-APAF1: bi-partite cell penetrating peptide containing APAF-1_122–131 linked to DPT-sh1 peptide shuttle (RPVVFVTRKK; also: linked to DPT-sh1 shuttle peptide, junction not given here; UniProt O14727 122-131, looked up, fragment)
Apoptotic effect [2]: death molecule | PP1c binding [3]: PP1-interacting

DPT-AIF4: mutated peptide of 8 accessible residues of AIF564–571 containing the F566A mutation (Biotin-VIAYLRDK)
Co-precipitation of PP1c with biotinylated peptide [4]: unable to co-precipitate PP1c

CC[C@H](C)[C@H](NC(=O)[C@@H](NC(=O)CNC(=O)[C@H](CCCCN)NC(=O)CCCC[C@@H]1SC[C@@H]2NC(=O)N[C@@H]21)C(C)C)C(=O)N[C@@H](C)C(=O)N[C@@H](Cc1ccc(O)cc1)C(=O)N[C@@H](CC(C)C)C(=O)N[C@@H](CCCNC(=N)N)C(=O)N[C@@H](CC(=O)O)C(=O)N[C@@H](CCCCN)C(=O)O [DPT-AIF2] (Biotin-KGVIAYLRDK-OH)
Ability to internalize Streptavidin-HRP conjugated molecules (in words) [1]: not DPT-AIF2
